Counter-ions that a name gives are not always drawn.
Biological target: T1, SIRT1 (Homo sapiens, UniProt Q96EB6)
T1 sequence (Q96EB6 1-747): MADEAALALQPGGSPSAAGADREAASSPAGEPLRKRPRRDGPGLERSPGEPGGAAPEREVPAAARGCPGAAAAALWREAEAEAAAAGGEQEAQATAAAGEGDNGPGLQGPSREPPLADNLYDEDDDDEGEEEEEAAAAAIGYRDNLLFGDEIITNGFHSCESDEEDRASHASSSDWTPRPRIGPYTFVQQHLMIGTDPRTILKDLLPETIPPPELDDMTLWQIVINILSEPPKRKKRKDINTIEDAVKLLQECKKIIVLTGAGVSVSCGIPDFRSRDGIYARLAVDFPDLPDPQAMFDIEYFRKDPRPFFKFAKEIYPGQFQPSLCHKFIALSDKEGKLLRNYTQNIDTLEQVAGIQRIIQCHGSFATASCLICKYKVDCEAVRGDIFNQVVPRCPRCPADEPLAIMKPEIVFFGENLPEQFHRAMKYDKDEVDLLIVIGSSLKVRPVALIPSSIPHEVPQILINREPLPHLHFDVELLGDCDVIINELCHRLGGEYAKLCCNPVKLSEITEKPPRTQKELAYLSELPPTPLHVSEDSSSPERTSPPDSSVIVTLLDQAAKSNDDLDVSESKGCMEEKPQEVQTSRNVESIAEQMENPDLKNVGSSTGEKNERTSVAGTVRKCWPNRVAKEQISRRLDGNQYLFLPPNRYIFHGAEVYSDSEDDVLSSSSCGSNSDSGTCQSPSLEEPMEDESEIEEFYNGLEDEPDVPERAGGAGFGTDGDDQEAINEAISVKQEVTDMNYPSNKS
Assay: Mass spectrometry based SIRT1 activation assay (TAMRA/5TMR-labeled 20mer peptide)
Type: biochemical
Details: for Emax: 25 min, percent maximum fold activation of SIRT1, read-out: % FOLD ACT.; for EC1.5 uM: concentration that results in 150% activation of SIRT1
Source text: A mass spectrometry based assay was used to identify modulators of SIRTI activity. The mass spectrometry based assay utilizes a peptide having 20 amino acid residues as follows: Ac-EE-K(biotin)-GQSTSSHSK(Ac)NleSTEG-K(5TMR)-EE-NH2 (SEQ ID NO: 1) wherein K(Ac) is an acetylated lysine residue and Nle is a norleucine. The peptide is labeled with the fluorophore 5TMR (excitation 540 nrnIemission 580 nm) at the C-terminus. The sequence of the peptide substrate is based on p53 with several modifications. In addition, the methionine residue naturally present in the sequence was replaced with the norleucine because the methionine may be susceptible to oxidation during synthesis and purification.
The mass spectrometry assay is conducted as follows: 0.5 J-1M peptide substrate and 120 μM βNAD^+ is incubated with 10 nM SIRT1 for 25 minutes at 25° C. in a reaction buffer (50 mM Tris-acetate pH 8, 137 mM NaCl, 2.7 mM KCl, 1 mM MgClz, 5 mM DTT, 0.05% BSA). Test compounds may be added to the reaction as described above. The SirTI gene is cloned into a T7-promoter containing vector and transformed into BL21 (DE3). After the 25 minute incubation with SIRT1, 10 μL of 10% formic acid is added to stop the reaction. Reactions are sealed and frozen for later mass spec analysis. Determination of the mass of the substrate peptide allows for precise determination of the degree of acetylation (i.e. starting material) as compared to deacetylated peptide (product).
A control for inhibition of sirtuin activity is conducted by adding 1 μL of 500 mM nicotinamide as a negative control at the start of the reaction (e.g., permits determination of maximum sirtuin inhibition). A control for activation of sirtuin activity is conducted using 10 nM of sirtuin protein, with 1 μL of DMSO in place of compound, to determine the amount of deacetylation of the substrate at a given timepoint within the linear range of the assay. This timepoint is the same as that used for test compounds and, within the linear range, the endpoint represents a change in velocity.
For the above assay, SIRTI protein was expressed and purified as follows. The SirT1 gene was cloned into a T7-promoter containing vector and transformed into BL21(DE3). The protein was expressed by induction with 1 mM IPTG as an N-terminal His-tag fusion protein at 18° C. overnight and harvested at 30,000×g. Cells were lysed with lysozyme in lysis buffer (50 mM Tris-HCl, 2 mM Tris[2-carboxyethyl]phosphine (TCEP), 10 μM ZnCl2, 200 mM NaCl) and further treated with sonication for 10 min for complete lysis. The protein was purified over a Ni-NTA column (Amersham) and fractions containing pure protein were pooled, concentrated and run over a sizing column (Sephadex S200 26/60 global). The peak containing soluble protein was collected and run on an Ion-exchange column (MonoQ). Gradient elution (200 mM-500 mM NaCl) yielded pure 20 protein. This protein was concentrated and dialyzed against dialysis buffer (20 mM TrisHCl, 2 mM TCEP) overnight. The protein was aliquoted and frozen at −80° C. until further use.
Sirtuin modulating compounds that activated SIRT1 were identified using the assay described above and are shown below in Table 4. The EC1.5 values represent the concentration of test compounds that result in 150% activation of SIRT1. The EC1.5 values for the activating compounds are represented by A (EC1.5≦1 μM), B (EC1.5>1 μM). The percent maximum fold activation is represented by A (Fold activation ≧200%) or B (Fold Activation <200%).

| Structure (SMILES) | Emax [%] | EC1.5 uM |
| --- | --- | --- |
| O=C(Nc1ccccc1-c1cn2c(CN3CCNCC3)csc2n1)c1cccc(-c2ccccc2)c1 [Compound 1, N-(2-(3-(piperazin-1-ylmethyl)imidazo[2,1-b]thiazol-6-yl)phenyl)biphenyl-3-carboxamide] | ≥ 200 | A (EC1.5≦1 μM) |
| O=C(Nc1ccccc1-c1cn2c(CN3CCNCC3)csc2n1)c1nc2ncccc2o1 [Compound 3, N-(2-(3-(piperazin-1-ylmethyl)imidazo[2,1-b]thiazol-6-yl)phenyl)oxazolo[4,5-b]pyridine-2-carboxamide] | < 200 | B (EC1.5>1 μM) |
| O=C(Nc1ccccc1-c1nc2cc(CN3CC[C@@H](F)C3)cnc2s1)c1cccc(OC2CN3CCC2CC3)c1 (stereo partly drawn) [Compound 5, N-(2-(6-(((R)-3-fluoropyrrolidin-1-yl)methyl)thiazolo[5,4-b]pyridin-2-yl)phenyl)-3-(quinuclidin-3-yloxy)benzamide] | ≥ 200 | B (EC1.5>1 μM) |
| CC(C)CNCC1CC1C(=O)Nc1ccccc1-c1nc2cc(CN3CCNCC3)cnc2s1 (centres unmarked) [Compound 6] |  | B (EC1.5>1 μM) |
| COc1ccc(C(=O)Nc2ccccc2-c2nc3cc(COC4CCNCC4)cnc3s2)cc1OC [Compound 8, 3,4-dimethoxy-N-(2-(6-((piperidin-4-yloxy)methyl)thiazolo[5,4-b]pyridin-2-yl)phenyl)benzamide] | ≥ 200 | A (EC1.5≦1 μM) |
| CN(C)CCNCc1cccc(C(=O)Nc2ccccc2-c2nc3cc(COC4CCNCC4)cnc3s2)c1 [Compound 9] | < 200 | B (EC1.5>1 μM) |
| CCCNc1cc(-c2nc3c(NC(=O)c4cccc(C5CCNC5)c4)cccc3[nH]2)ccn1 (centres unmarked) [Compound 15, N-(2-(2-(propylamino)pyridin-4-yl)-1H-benzo[d]imidazol-4-yl)-3-(pyrrolidin-3-yl)benzamide hydrochloride] | ≥ 200 | A (EC1.5≦1 μM) |
| O=C(Nc1cccc(COC2CCNCC2)c1)c1cccc2[nH]c(-c3ccnc(N4CCOCC4)c3)nc12 [Compound 17, 2-(2-morpholinopyridin-4-yl)-N-(3-((piperidin-4-yloxy)methyl)phenyl)-1H-benzo[d]imidazole-4-carboxamide] | ≥ 200 | A (EC1.5≦1 μM) |
| CN(C)CCCNc1ccc(-c2nc3cc(NC(=O)c4cccc(CN5CCNCC5)c4)ccc3[nH]2)cn1 [Compound 18] | < 200 | B (EC1.5>1 μM) |
| COc1ccc2nc(NC(=O)c3cccc4[nH]c(-c5ccc(N6CCNCC6)nc5)nc34)sc2c1 [Compound 19, N-(6-methoxybenzo[d]thiazol-2-yl)-2-(6-(piperazin-1-yl)pyridin-3-yl)-1H-benzo[d]imidazole-4-carboxamide] | ≥ 200 | A (EC1.5≦1 μM) |
| N#Cc1ccc(NC(=O)c2cccc3[nH]c(-c4ccc(N5CCNCC5)nc4)nc23)cc1C(F)(F)F [Compound 20, N-(4-cyano-3-(trifluoromethyl)phenyl)-2-(6-(piperazin-1-yl)pyridin-3-yl)-1H-benzo[d]imidazole-4-carboxamide] | ≥ 200 | A (EC1.5≦1 μM) |
| CCCCN(CCCC)c1cc(-c2nc3c(C(=O)Nc4cccc(COC5CCNCC5)c4)cccc3[nH]2)ccn1 [Compound 21] | ≥ 200 | A (EC1.5≦1 μM) |

From US20130102009A1, “SIRTUIN ACTIVATORS AND ACTIVATION ASSAYS” (priority 2010, published 2013)
